# Where two headings read alike, the source gives them in different places.
# What was measured:
# [1] = system: H929 multiple myeloma tumour line; test: In vitro cytotoxicity, Microculture Tetrazolium Assay; format: cell-based; settings: Homo sapiens, NCI-H929, 48 h, H929 cells, 48 hours exposure, MTT; read-out: IC50 (μM) MTT H929
# Experimental: The cytotoxicity studies were carried out on the H929 multiple myeloma tumour line.
# The cells are distributed onto microplates and exposed to the test compounds for 48 hours.
# Mcl-1 protein = Mcl-1 protein (UniProtKB primary accession number: Q07820) (Homo sapiens, UniProt Q07820); test: Inhibition of Mcl-1 by fluorescence polarisation, Method 1; format: binding; settings: read-out: IC50 (M) Mcl-1 FP
# Chain of Mcl-1 protein (Q07820 whole entry): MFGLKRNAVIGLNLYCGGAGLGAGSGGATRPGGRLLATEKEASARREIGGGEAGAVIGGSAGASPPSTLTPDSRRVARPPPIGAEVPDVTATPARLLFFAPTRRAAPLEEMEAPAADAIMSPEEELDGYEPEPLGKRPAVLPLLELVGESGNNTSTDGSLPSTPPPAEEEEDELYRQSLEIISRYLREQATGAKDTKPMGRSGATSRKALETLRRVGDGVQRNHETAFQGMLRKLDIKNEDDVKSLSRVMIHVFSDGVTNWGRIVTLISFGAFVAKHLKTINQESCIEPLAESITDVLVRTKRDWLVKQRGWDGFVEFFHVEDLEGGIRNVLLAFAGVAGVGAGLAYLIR
# Outline: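 Fluorescence polarisation competition with an 11-point compound dilution series (final DMSO 5%). Mcl-1 protein at 5 nM and fluorescein-labelled ligand at 1 nM (final) in 10 mM HEPES, 150 mM NaCl, 0.05% Tween 20, pH 7.4.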
# [2] = fluorescence polarisation test, Method 2 values are underlined in the patent (underlining not visible here)
# [3] = fluorescence polarisation, Method 1, or Method 2
SMILES,IC50 (Mcl-1 protein; [2]) [M],IC50 (Mcl-1 protein; [3]) [M],IC50 [1] [µM]
"CCn1nccc1COc1ccccc1CC(Oc1ncnc2sc(-c3ccc(F)o3)c(-c3ccc(OCCN(C)C)c(Cl)c3C)c12)C(=O)O [Example 204, (2R)-2-{[(5Sa)-5-{3-chloro-4-[2-(dimethylamino)ethoxy]-2-methylphenyl}-6-(5-fluorofuran-2-yl)thieno[2,3-d]pyrimidin-4-yl]oxy}-3-{2-[(1-ethyl-1H-pyrazol-5-yl)methoxy]phenyl}propanoic acid]",4.9e-09,–,0.034
"Cc1c(-c2c(-c3ccc(F)cc3)sc3ncnc(OC(Cc4ccccc4OCc4ccnc(-c5ccc(Cl)cc5)n4)C(=O)O)c23)ccc(OCCN2CCN(C)CC2)c1Cl [Example 27, (2R)-2-{[(5Sa)-5-{3-chloro-2-methyl-4-[2-(4-methylpiperazin-1-yl)ethoxy]phenyl}-6-(4-fluorophenyl)thieno[2,3-d]pyrimidin-4-yl]oxy}-3-(2-{[2-(4-chlorophenyl)pyrimidin-4-yl]methoxy}phenyl)propanoic acid]",6.6e-09,–,0.045
"CCN(CC)CCOc1ccc(-c2c(-c3ccc(F)cc3)sc3ncnc(OC(Cc4ccccc4OCc4ccnc(-c5ccccc5F)n4)C(=O)O)c23)c(C)c1Cl [Example 746, (2R)-2-{[(5Sa)-5-{3-chloro-4-[2-(diethylamino)ethoxy]-2-methylphenyl}-6-(4-fluorophenyl)thieno[2,3-d]pyrimidin-4-yl]oxy}-3-(2-{[2-(2-fluorophenyl)pyrimidin-4-yl]methoxy}phenyl)propanoic acid]",–,3.5e-09,0.111
"Cc1c(-c2c(-c3ccc(F)cc3)sc3ncnc(OC(Cc4ccccc4OCc4ccnn4-c4ccccc4)C(=O)O)c23)ccc(OCCN2CCN(C)CC2)c1Cl [Example 74, (2R)-2-{[(5Sa)-5-{3-chloro-2-methyl-4-[2-(4-methylpiperazin-1-yl)ethoxy]phenyl}-6-(4-fluorophenyl)thieno[2,3-d]pyrimidin-4-yl]oxy}-3-{2-[(1-phenyl-1H-pyrazol-5-yl)methoxy]phenyl}propanoic acid]",1.6e-08,–,0.365
"Cc1c(-c2c(-c3ccco3)sc3ncnc(OC(Cc4ccccc4OCc4cncnc4)C(=O)O)c23)ccc(OCCN2CCN(C)CC2)c1Cl [Example 277, (2R)-2-{[(5Sa)-5-{3-chloro-2-methyl-4-[2-(4-methylpiperazin-1-yl)ethoxy]phenyl}-6-(furan-2-yl)thieno[2,3-d]pyrimidin-4-yl]oxy}-3-[2-(pyrimidin-5-ylmethoxy)phenyl]propanoic acid]",4.8e-09,–,0.07
"Cc1c(-c2c(-c3ccco3)sc3ncnc(OC(Cc4ccccc4OCc4ccnn4C)C(=O)O)c23)ccc(OCCN2CCN(C)CC2)c1Cl [Example 260, (2R)-2-{[(5Sa)-5-{3-chloro-2-methyl-4-[2-(4-methylpiperazin-1-yl)ethoxy]phenyl}-6-(furan-2-yl)thieno[2,3-d]pyrimidin-4-yl]oxy}-3-{2-[(1-methyl-1H-pyrazol-5-yl)methoxy]phenyl}propanoic acid]",6.7e-09,–,0.033
"CCC#Cc1sc2ncnc(OC(Cc3ccccc3OCc3ccnn3CCCC)C(=O)O)c2c1-c1ccc(OCCN2CCN(C)CC2)c(Cl)c1C [Example 612, (2R)-3-{2-[(1-butyl-1H-pyrazol-5-yl)methoxy]phenyl}-2-{[6-(but-1-yn-1-yl)-(5Sa)-5-{3-chloro-2-methyl-4-[2-(4-methylpiperazin-1-yl)ethoxy]phenyl}thieno[2,3-d]pyrimidin-4-yl]oxy}propanoic acid]",–,3.5e-09,0.02
"COc1ccccc1-c1nccc(COc2ccccc2CC(Oc2ncnc3sc(-c4ccc(OCc5ccccn5)cc4)c(-c4ccc(OCCN5CCN(C)CC5)c(Cl)c4C)c23)C(=O)O)n1 [Example 769, (2R)-2-[((5Sa)-5-{3-chloro-2-methyl-4-[2-(4-methylpiperazin-1-yl)ethoxy]phenyl}-6-[4-(pyridin-2-ylmethoxy)phenyl]thieno[2,3-d]pyrimidin-4-yl)oxy]-3-(2-{[2-(2-methoxyphenyl)pyrimidin-4-yl]methoxy}phenyl)propanoic acid]",–,9.48e-10,0.01
"Cc1c(-c2c(-c3ccc(F)cc3)sc3ncnc(OC(Cc4ccccc4OCc4ccnn4CC4CCCCC4)C(=O)O)c23)ccc(OCCN2CCN(C)CC2)c1Cl [Example 80, (2R)-2-{[(5Sa)-5-{3-chloro-2-methyl-4-[2-(4-methylpiperazin-1-yl)ethoxy]phenyl}-6-(4-fluorophenyl)thieno[2,3-d]pyrimidin-4-yl]oxy}-3-(2-{[1-(cyclohexylmethyl)-1H-pyrazol-5-yl]methoxy}phenyl)propanoic acid]",4.5e-09,–,0.035

# Further lines, with some results ahead:
IC50 (Mcl-1 protein; [2]) [M],IC50 (Mcl-1 protein; [3]) [M],SMILES,IC50 [1] [µM]
–,3.55e-09,"COc1ccccc1-c1nccc(COc2ccccc2CC(Oc2ncnc3sc(-c4ccc(OCc5ccc(Cl)cc5)cc4)c(-c4ccc(OCCN5CCN(C)CC5)c(Cl)c4C)c23)C(=O)O)n1 [Example 775, (2R)-2-[(6-{4-[(4-chlorobenzyl)oxy]phenyl}-(5Sa)-5-{3-chloro-2-methyl-4-[2-(4-methylpiperazin-1-yl)ethoxy]phenyl}thieno[2,3-d]pyrimidin-4-yl)oxy]-3-(2-{[2-(2-methoxyphenyl)pyrimidin-4-yl]methoxy}phenyl)propanoic acid]",0.039
7e-09,–,"CCCCNC(=O)COc1ccccc1CC(Oc1ncnc2sc(-c3ccc(F)o3)c(-c3ccc(OCCN4CCN(C)CC4)c(Cl)c3C)c12)C(=O)O [Example 156, (2R)-3-{2-[2-(butylamino)-2-oxoethoxy]phenyl}-2-{[(5Sa)-5-{3-chloro-2-methyl-4-[2-(4-methylpiperazin-1-yl)ethoxy]phenyl}-6-(5-fluorofuran-2-yl)thieno[2,3-d]pyrimidin-4-yl]oxy}propanoic acid]",0.092
–,2.5e-08,"CC#Cc1sc2ncnc(OC(Cc3ccccc3OC)C(=O)O)c2c1-c1ccc(OCCC2CCN(C)CC2)c(Cl)c1C [Example 465, (2R)-2-{[(5Sa)-5-{3-chloro-2-methyl-4-[2-(1-methylpiperidin-4-yl)ethoxy]phenyl}-6-(prop-1-yn-1-yl)thieno[2,3-d]pyrimidin-4-yl]oxy}-3-(2-methoxyphenyl)propanoic acid]",2.06
5.6e-09,–,"COc1nccc(COc2ccccc2CC(Oc2ncnc3sc(-c4ccc(F)c(OC)c4)c(-c4ccc(OCCN5CCN(C)CC5)c(Cl)c4C)c23)C(=O)O)n1 [Example 383, (2R)-2-{[(5Sa)-5-{3-chloro-2-methyl-4-[2-(4-methylpiperazin-1-yl)ethoxy]phenyl}-6-(4-fluoro-3-methoxyphenyl)thieno[2,3-d]pyrimidin-4-yl]oxy}-3-{2-[(2-methoxypyrimidin-4-yl)methoxy]phenyl}propanoic acid]",0.03
–,3.6e-09,"CCN(C)CCOc1ccc(-c2c(-c3ccc(F)cc3)sc3ncnc(OC(Cc4ccccc4OCc4ccnc(-c5ccccc5F)n4)C(=O)O)c23)c(C)c1Cl [Example 747, (2R)-2-{[(5Sa)-5-(3-chloro-4-{2-[ethyl(methyl)amino]ethoxy}-2-methylphenyl)-6-(4-fluorophenyl)thieno[2,3-d]pyrimidin-4-yl]oxy}-3-(2-{[2-(2-fluorophenyl)pyrimidin-4-yl]methoxy}phenyl)propanoic acid]",0.0263
1.6e-08,–,"COc1cc(COc2ccccc2CC(Oc2ncnc3sc(-c4ccc(F)cc4)c(-c4ccc(OCCN5CCN(C)CC5)c(Cl)c4C)c23)C(=O)O)nc(OC)n1 [Example 8, (2R)-2-{[(5Sa)-5-{3-chloro-2-methyl-4-[2-(4-methylpiperazin-1-yl)ethoxy]phenyl}-6-(4-fluorophenyl)thieno[2,3-d]pyrimidin-4-yl]oxy}-3-{2-[(2,6-dimethoxypyrimidin-4-yl)methoxy]phenyl}propanoic acid]",0.145
5.9e-09,–,"Cc1c(-c2c(-c3ccc(Cl)o3)sc3ncnc(OC(Cc4ccccc4OCC(F)(F)F)C(=O)O)c23)ccc(OCCN2CCN(C)CC2)c1Cl [Example 365, (2R)-2-{[6-(5-chlorofuran-2-yl)-(5Sa)-5-{3-chloro-2-methyl-4-[2-(4-methylpiperazin-1-yl)ethoxy]phenyl}thieno[2,3-d]pyrimidin-4-yl]oxy}-3-[2-(2,2,2-trifluoroethoxy)phenyl]propanoic acid]",0.026
–,4.4e-08,"COc1ccccc1CC(Oc1ncnc2sc(-c3csc4ccsc34)c(-c3ccc(OCCN4CCN(C)CC4)c(Cl)c3C)c12)C(=O)O [Example 571, (2R)-2-{[(5Sa)-5-{3-chloro-2-methyl-4-[2-(4-methylpiperazin-1-yl)ethoxy]phenyl}-6-(thieno[3,2-b]thiophen-3-yl)thieno[2,3-d]pyrimidin-4-yl]oxy}-3-(2-methoxyphenyl)propanoic acid]",0.559
6.5e-09,–,"CCOCCn1nccc1COc1ccccc1CC(Oc1ncnc2sc(-c3ccc(F)cc3)c(-c3ccc(OCCN4CCN(C)CC4)c(Cl)c3C)c12)C(=O)O [Example 89, (2R)-2-{[(5Sa)-5-{3-chloro-2-methyl-4-[2-(4-methylpiperazin-1-yl)ethoxy]phenyl}-6-(4-fluorophenyl)thieno[2,3-d]pyrimidin-4-yl]oxy}-3-(2-{[1-(2-ethoxyethyl)-1H-pyrazol-5-yl]methoxy}phenyl)propanoic acid]",0.027
1.6e-08,–,"Cc1c(-c2c(-c3ccco3)sc3ncnc(OC(Cc4ccccc4OC4CCCC4)C(=O)O)c23)ccc(OCCN2CCN(C)CC2)c1Cl [Example 212, (2R)-2-{[(5Sa)-5-{3-chloro-2-methyl-4-[2-(4-methylpiperazin-1-yl)ethoxy]phenyl}-6-(furan-2-yl)thieno[2,3-d]pyrimidin-4-yl]oxy}-3-[2-(cyclopentyloxy)phenyl]propanoic acid]",0.616

# From US9670227B2, “Thienopyrimidine derivatives, a process for their preparation and pharmaceutical compositions containing them” (LES LABORATOIRES SERVIER, priority 2013, dated 2017)
